Entries after “also recorded” stand apart in the source; their conditions may differ. Non-standard residues stand in square brackets, D forms with d. No end group written: not given here. Cit = NC(=O)NCCC[C@H](N)C(=O)O; Orn = NCCC[C@H](N)C(=O)O; Abu = CC[C@H](N)C(=O)O
Legend:
[1] = test system: HLA-A2402/K^b transgenic mice; assay: In vivo immunogenicity (CTL-inducing activity): immunization of HLA-A2402/K^b transgenic mice, 51Cr release assay of in vitro restimulated splenocytes; parameters: species or system mouse
Experimental: In vivo immunogenicity of each antigen peptide was evaluated using the HLA-A2402/K^b transgenic mice. The preparation of the transgenic mice and the determination of in vivo immunogenicity were conducted according to WO 02/47474, and Int J. Cancer. 100, 565-570 (2002) that describe them in detail.
(§1) The non-substituted type peptide and the substituted type peptides as described above were synthesized using Fmoc method. The peptides synthesized were each adjusted to 40 mg/ml in DMSO, and each diluted with a sterilized water to 2.4 mg/ml. They were then mixed with a 1.27 parts of Freund's incomplete adjuvant (ISA51) using a glass syringe to prepare a water-in-oil emulsion. The resultant emulsion (200 μl) was injected into the HLA-A2402/K^b transgenic mouse subcutaneously in the base of the tail for immunization.
Seven days after the immunization, the spleen was removed and grounded on the frosted part of glass slide, and splenocytes were recovered and prepared. A portion of the splenocytes undergone hemolysis treatment with an ACK buffer (0.15 M NH4Cl, 10 mM KHCO3, 0.1 mM EDTA, pH 7.2-7.4) was pulsed with the above-mentioned peptide compositions at 100 μg/ml for 1 hour, and seeded into a 24-well plate at 7×10^5/well. Simultaneously, splenocytes not pulsed with any peptide (7×10^6/well) were added together, and stimulated in vitro and incubated at 37° C. for 5 to 6 days. The in vitro stimulation was carried out in RPMI1640 medium supplemented with 10% FCS, 10 mM HEPES, 20 mM L-glutamine, 1 mM sodium pyruvate, 1 mM MEM nonessential amino acids, 1% MEM vitamin and 55 μM 2-mercaptoethanol.
The test for cytotoxic activity was conducted according to the conventional manner. EL4-A2402/K^b cells obtained by transforming EL-4 cells (DAINIPPON PHARMACEUTICAL CO., LTD., Catalogue No. 06-039) with an expression vector encoding HLA-A2402/K^b, and the EL4-A2402/K^b cells pulsed with peptide A, B, C, D, E, or F were used as target cells (T). The EL4-A2402/K^b cells were prepared in a similar manner to the preparation of Jurkat-A2402/K^b cells described in WO 02/47474.
These cells were labeled with ^51Cr (3.7 MBq/10^6 cells) and pulsed with the peptide at 100 μg/ ml for an hour (The labeling was carried out over 2 hours, and 1 hour after the initiation of labeling, the peptide was added). Splenocytes in vitro stimulated and incubated were used as effector cells (E). They were combined with the target cells at various ratios, and ^51Cr release assay (J. Immunol., 1997; 159: 4753) was conducted to determine the cytotoxic activity of the effector cells. […]
as §1, with “The” for “The non-substituted type peptide and the”, “peptides” for “peptides as described above”, “physiological saline” for “sterilized water”
The test for cytotoxic activity was conducted according to the conventional manner. EL4-A2402/K^b cells obtained by transforming EL-4 cells with an expression vector encoding HLA-A2402/K^b, and the EL4-A2402/K^b cells pulsed with peptide K, L, or M were used as target cells (T).
These cells were labeled with ^51Cr (3.7 MBq/10^6 cells) and pulsed with the peptide at 100 μg/ml for an hour (The labeling was carried out over 2 hours, and 1 hour after the initiation of labeling, the peptide was added). Splenocytes in vitro stimulated and incubated were used as effector cells (E). They were combined with the target cells at various ratios, and ^51Cr release assay (J. Immunol., 1997; 159: 4753) was conducted to determine the cytotoxic activity of the effector cells.

CTLs = settings: Clin. Cancer. Res. 8: 2626, 2002, and WO 00/06602; cited from earlier work
HLA-A24 antigen = settings: compared with the natural type peptide WT1235-243; cited from earlier work
[2] = Example 1, s.c. immunization with peptide in ISA51 water-in-oil emulsion, splenocytes 7 days after, target EL4-A2402/K^b cells pulsed with the peptide at 100 μg/ml vs not pulsed
[3] = Example 3, peptide with KLH in ISA51 emulsion s.c., target EL4-A2402/K^b cells pulsed with the peptide at 20 μg/ml vs not pulsed
[4] = Example 4, peptide in saline/ISA51 emulsion s.c., target EL4-A2402/K^b cells pulsed with the peptide at 100 μg/ml vs not pulsed

Substance: AMTWNQMNL [peptide H]
- immunogenicity (activity to induce CTLs); cytotoxic activity (% Specific Lysis) vs E/T ratio ([1]; Example 3, peptide with KLH in ISA51 emulsion s.c., target Jurkat-A2402/K^b cells pulsed with the peptide at 20 μg/ml vs not pulsed): have an immunogenicity (an activity to induce CTLs); also recorded: specific CTLs were induced

Substance: AYTWNQMNL [peptide C]
- immunogenicity (activity to induce CTLs); cytotoxic activity (% Specific Lysis) vs E/T ratio [1, 2]: specific CTLs were induced

Substance: Abu-Tyr-Thr-Trp-Asn-Gln-Met-Asn-Leu ([Abu]YTWNQMNL) [peptide D]
- immunogenicity (activity to induce CTLs); cytotoxic activity (% Specific Lysis) vs E/T ratio [1, 2]: specific CTLs were induced

Substance: CMTWNQMNL [WT1235-243]
- activity to induce CTLs in HLA-A24-restricted manner (CTLs): having an activity to induce CTLs in HLA-A24-restricted manner

Substance: CYTWNQMNL [peptide A, reference compound]
- immunogenicity (activity to induce CTLs); cytotoxic activity (% Specific Lysis) vs E/T ratio [1, 2]: specific CTLs were induced
- binding activity to the HLA-A24 antigen (HLA-A24 antigen): higher binding activity to the HLA-A24 antigen than the natural type peptide

Substance: Cit Tyr Thr Trp Asn Gln Met Asn Leu ([Cit]YTWNQMNL) [peptide J]
- immunogenicity (activity to induce CTLs); cytotoxic activity (% Specific Lysis) vs E/T ratio [1, 3]: have an immunogenicity (an activity to induce CTLs); also recorded: specific CTLs were induced

Substance: FYTWNQMNL [peptide L]
- immunogenicity (activity to induce CTLs); cytotoxic activity (% Specific Lysis) vs E/T ratio [1, 4]: have an immunogenicity (an activity to induce CTLs); also recorded: specific CTLs were induced

Substance: KYTWNQMNL [peptide F]
- immunogenicity (activity to induce CTLs); cytotoxic activity (% Specific Lysis) vs E/T ratio [1, 2]: specific CTLs were induced

Substance: LYTWNQMNL [peptide K]
- immunogenicity (activity to induce CTLs); cytotoxic activity (% Specific Lysis) vs E/T ratio [1, 4]: have an immunogenicity (an activity to induce CTLs); also recorded: specific CTLs were induced

Substance: NYTWNQMNL [peptide M]
- immunogenicity (activity to induce CTLs); cytotoxic activity (% Specific Lysis) vs E/T ratio [1, 4]: have an immunogenicity (an activity to induce CTLs); also recorded: specific CTLs were induced

Substance: Orn Tyr Thr Trp Asn Gln Met Asn Leu ([Orn]YTWNQMNL) [peptide I]
- immunogenicity (activity to induce CTLs); cytotoxic activity (% Specific Lysis) vs E/T ratio [1, 3]: have an immunogenicity (an activity to induce CTLs); also recorded: specific CTLs were induced

Substance: RYTWNQMNL [peptide E]
- immunogenicity (activity to induce CTLs); cytotoxic activity (% Specific Lysis) vs E/T ratio [1, 2]: specific CTLs were induced

Substance: SMTWNQMNL [peptide G]
- immunogenicity (activity to induce CTLs); cytotoxic activity (% Specific Lysis) vs E/T ratio [1, 3]: have an immunogenicity (an activity to induce CTLs); also recorded: specific CTLs were induced

Substance: SYTWNQMNL [peptide B]
- immunogenicity (activity to induce CTLs); cytotoxic activity (% Specific Lysis) vs E/T ratio [1, 2]: specific CTLs were induced
